From BindingDB's records for PubMed 2139469 (University of Nebraska, 1990)
Structures can show the parent of a compound that is named as a salt.

Target: D(1A) dopamine receptor (Bos taurus, UniProt Q95136)
Sequence (Q95136 whole entry): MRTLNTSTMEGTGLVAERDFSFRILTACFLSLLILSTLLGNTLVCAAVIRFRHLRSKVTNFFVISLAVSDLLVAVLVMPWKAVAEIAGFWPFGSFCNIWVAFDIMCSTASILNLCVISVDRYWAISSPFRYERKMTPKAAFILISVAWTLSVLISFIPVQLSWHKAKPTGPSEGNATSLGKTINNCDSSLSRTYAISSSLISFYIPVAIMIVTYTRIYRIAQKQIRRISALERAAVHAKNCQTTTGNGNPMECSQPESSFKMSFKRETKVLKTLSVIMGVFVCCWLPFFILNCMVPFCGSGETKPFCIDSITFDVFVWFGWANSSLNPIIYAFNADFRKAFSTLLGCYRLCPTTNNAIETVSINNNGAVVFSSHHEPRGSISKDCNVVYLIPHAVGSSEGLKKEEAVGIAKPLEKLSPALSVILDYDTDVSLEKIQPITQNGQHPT

Structure (SMILES) | Ki
CC[C@@H](CO)NC(=O)[C@@H]1C=C2c3cccc4c3c(cn4C)C[C@H]2N(C)C1 | 1580 nM
O=c1[nH]c2ccccc2n1CCCN1CCC(n2c(=O)[nH]c3cc(Cl)ccc32)CC1 | 2040 nM
O=C(c1ccc(F)cc1)C1CCN(CCn2c(=O)[nH]c3ccccc3c2=O)CC1 [3-(2-{4-[(4-fluorophenyl)carbonyl]piperidin-1-yl}ethyl)-1,2,3,4-tetrahydroquinazoline-2,4-dione] | 395 nM
O=C(CCCN1CCC(O)(c2ccc(Cl)cc2)CC1)c1ccc(F)cc1 [4-[4-(4-Chloro-phenyl)-4-hydroxy-piperidin-1-yl]-1-(4-fluoro-phenyl)-butan-1-one;propionate(HCl)] | 315 nM
CSc1ccc2c(c1)N(CC[C@@H]1CCCCN1C)c1ccccc1S2 [10-[2-(1-Methyl-piperidin-2-yl)-ethyl]-2-methylsulfanyl-10H-phenothiazine (thioridazine)] | 75.4 nM
CN1[C@@H]2CC[C@H]1CC(OC(=O)[C@H](CO)c1ccccc1)C2 (some centres not stated) [CAS_51-55-8] | > 10000 nM
CN(C)CCCSc1ccccc1NC(=O)/C=C/c1ccccc1 [CINANSERIN] | 2090 nM
OCCC1CCN(CC/C=C2/c3ccc(F)cc3Sc3ccc(C(F)(F)F)cc32)CC1 [Lu 12-331] | 0.29 nM
CN1CCN2c3ccccc3Cc3ccccc3[C@H]2C1 [MIANSERIN (+)] | 318 nM
CCN1CCCC1CNC(=O)c1cc(S(N)(=O)=O)ccc1OC (configuration not stated) [N-[(1-ethylpyrrolidin-2-yl)methyl]-2-methoxy-5-sulfamoylbenzamide] | > 10000 nM
Cc1ccc(N(CC2=NCCN2)c2cccc(O)c2)cc1 [SMR000059054] | > 10000 nM
C=CCN1CC[C@]23c4c5ccc(O)c4O[C@H]2C(=O)CC[C@@]3(O)[C@H]1C5 [[17-(2,3-3H-2-propenyl)]-4,5a-epoxy-3,14-dihydroxymorphinan-6-one] | > 10000 nM
